Results on eight compounds are retold here after patent publication EP1379634B1 (THE UNIVERSITY OF GEORGIA RESEARCH FOUNDATION, INC., priority 2001, dated 2002).

For one data set, the system named is BALB/c mice. As to the kind of experiment: Observation of side effects in treated mice. It counts as in vivo. As to conditions: long-term studies.
Data set [1] concerns purified Taenia solium cysteine protease. As to the kind of experiment: Competitor assay of low Vmax substrates (vehicles) against high Vmax substrate cocktails (Step III), purified protease. As to conditions: vehicle 8X10^-6 M; for inhibition with the 1.4% cocktail: 1.4% cocktail (Z-FR-AFC 1X10^-6 M); for inhibition with the final cocktail (7.4%): 7.4% cocktail (five high Vmax substrates, 1X10^-6 M each); for V Value: V = P * M, P inhibition with first (1.4%) cocktail, M with last (7.4%) cocktail, each cocktail substrate 1X10^-6 M. The class given is biochemical. As to the method:
The top 1.4% of substrates (out of 67) in the full panel of substrates with the highest Vmax values were chosen to compose a "TOP 1.4% cocktail". (We employed "Vmax" here although Kcat could also be used). Due to the lower number of substrates, a percentage was not chosen for the "BOTTOM %" substrates. Alternately, all substrates which were not cleaved as determined by a value of 10 uM/hr or less, were chosen to be tested in this step for competitive ability. Hereinafter the term "vehicle" will represent low Vmax substrates that were capable of inhibiting cleavage of the percent cocktails. In this instance, we tested for "vehicles" which inhibited cleavage of the TOP 1.4% cocktail (they were delivered into the active site). Based upon our results from Step II, the top 1.4% cocktail was composed of Z-Phe-Arg-AFC, the highest cleaved substrate.
The experiment began with a competitor test between the noncleaved low Vmax substrates and the highest Vmax substrate, Z-Phe-Arg-AFC. Concentrations were varied between the low Vmax substrate and Z-Phe-Arg-AFC, as described above under "refinement of assay" until a relative inhibition profile was obtained.
The mixture was allowed to equilibrate for a period of 30 minutes. Finally, active purified enzyme was added to the tubes at a concentration that was always 50 times less than the concentration of the high and low Vmax substrates, respectively, in order to insure saturation conditions. This concentration varied from purification to purification and the amount added depended upon the yield and specific activity of the purified protease.
Positive controls were set up in a manner similar to that described for test controls, except that solvent was added in substitution for the low Vmax substrate (in a volume equal to the low Vmax volume addition). All of the substrates could be dissolved in dimethylsulfoxide (DMSO), and therefore, this was the solvent of choice. Negative controls were set up by adding the low Vmax and the high Vmax substrate in a tube without the protease. All potential non-proteolytic induced liberation of AFC was therefore controlled for in this tube (a feature which also monitored stability of the AFC substrates, since these substrates will freely liberate AFC when unstable). A tube set was established for this negative control.
All controls were set up in triplicate, and experiments were repeated a minimum of five times. The assays were incubated at 37°C, for 18 hours overnight.
Percent inhibition was calculated as: %Inhibition = ((AFC positive for "Y"−AFC negative for "Y")−(AFC test−AFC negative for "Y"))/(AFC positive for "Y"−AFC negative for "Y") × 100 [formula]
A 2.9% cocktail of the high Vmax substrates was made. This was composed of Z-FR-AFC and the second most cleaved substrate, Z-FAR-AFC. The vehicles promoted from the initial screenings above were again tested for competitive inhibition ability with the new cocktails. Their concentrations were set identically to those which were "fixed" in the previous protocols. In other words, 8X10^-6 M of the vehicle was added to the culture tube with 1X10^-6 M of Z-FR-AFC and 1X10^-6 M of Z-FAR-AFC. Active protease was added last at a concentration that was 50 times less than the concentration of the high Vmax substrate (to ensure saturating conditions).
In similar experimental fashion, a 4.4%, 5.9%, and 7.4% cocktail were tested with each of the promising vehicles. Each increase in the percentage represented an increase by an additional high Vmax substrate. Each of the individual components in the cocktail were added at 1X10^-6 M each, to 8X10^-6 M of the vehicle. The composition of the cocktails was as follows: 4.4% cocktail: Z-FR-AFC, Z-FAR-AFC, and Z-AAK-AFC (third highest cleaved substrate); 5.9% cocktail: Z-FR-AFC, Z-FAR-AFC, Z-AAK-AFC, and AP-AFC (fourth highest cleaved substrate); 7.4% cocktail: […], Z-FAR-AFC, Z-AAK-AFC, AP-AFC, and Z-VLR-AFC. […]

Data set [2] shares this test system. Put plainly: Substrate cleavage screen of AFC-linked peptides (Step II), purified protease. The class given is biochemical. As to conditions: 0.4 M Citrate, pH 4.9, 0.01 M cysteine, 18 h, 37 °C. As to the method: In this step, the most efficacious substrate for detection of the cysteine protease (high Kcat substrate) was determined in vitro along with those substrates which were not well cleaved (low kcat substrates). From this point forward, the following conditions refer to all assays: "assay buffer" refers to 0.4 M Citrate, pH 4.9 (the pH optima of the protease). Incubation time was 18 hours at 37°C. These conditions were determined by our preliminary data to be best for kinetic evaluation of the protease. […] The experiments were conducted in 6X50 […] Borosilicate mini-culture tubes (Fisher Scientific), and a fluorometer (Turner) was employed for detection of AFC cleavage.
Since the full 8,420 amino acid possibilities for cleavage were not available, representative substrates were employed. […] In order to choose this subset, representative amino acids (i.e., selected from the categories of acidic, basic, nonpolar, uncharged) were chosen so as to create as many categories of motifs as feasible for the P3-P1 positions with a set of 67 small peptides (see lists at Fig. 4a and Fig. 4b). The target cysteine protease from Taenia solium was isolated using the purification methods described previously in the patent WO 00/63350.
Approximately 1 ug (or a proteolytically detectable amount) of the purified target cysteine protease was incubated individually, with 1 ug of each of the available substrates in 500 uL of assay buffer. During this setup, the substrate was pre-incubated in the assay buffer for a short period of time (20 minutes) in order to reach an equilibrated status before the addition of the protease. Cleavage assessments were based upon the property of the protease to cleave synthetic peptide substrates linked at the C-terminus to 7-Amino-4-Trifluoromethyl Coumarin (AFC) as previously described. AFC linked tripeptides, dipeptides, and monopeptides, (with a variety of permutations at P3-P1) were available from Enzyme Systems Products (Livermore, CA), and were used as the source of the subset. Following incubation of enzyme preparations overnight (18 h, 37 °C) with peptide in assay buffer (Citrate, pH 4.9, supplemented with 0.01 M cysteine), free AFC concentrations were measured fluorometrically (excitation 405 nm, emission 505 nm). The proteolytic cleavage released the AFC group, which was measurable as a free molecule by a standard fluorometer and converted into molar quantities, based upon a previously established standard curve. The simplicity of AFC detection by the fluorometer was a key factor which expedited and simplified the procedures.
In the assay, 1 ug of the purified Taenia cysteine protease was added to a saturating amount of Z-Phe-Arg-AFC (4X10^-5 M) in assay buffer. The experiment was conducted in triplicate and repeated at least 5 times until we were certain that variability in AFC cleavage was not statistically significant.
Vmax for the cleavage of substrates by the purified target protease and Vmax for substrates cleaved by the crude mix protease were each calculated using conventional kinetic modeling calculations already described in the art.

For a further data set, the system named is Taenia solium crude mix. Put plainly: Competitor assay of vehicles against high Vmax substrate cocktails (Step III), crude mix. The class given is biochemical. From the text: Step III for a crude mix proceeds as it would for a purified protease, except that Vm is used instead of kcat.
One of the most intriguing findings in this experiment was that a highly similar inhibition pattern for the competitor assay resulted when the crude mix was employed as the source of the target protease. Although there were some variations in the effects of inhibitor dilution, the most highly ranked vehicles remained inhibitory consistently in comparison to the profile with the target protease. The relative profile and composition of the top tier of vehicles was identical. Z-LLL-AFC, Z-LLY-AFC, Mu-LY-AFC, Boc-VPR-AFC, Z-SY-AFC, Z-RR-AFC, Z-FLF-AFC, and Z-LGR-AFC consistently emerged as the top eight vehicles (Fig. 5b), respectively, based upon their V values (Table 2). […] It was notable that the three vehicles had very similar V values. […] As was mentioned, this vehicle along with Z-LLL-AFC and Z-LLY-AFC, were consistently the most inhibitory vehicles. The V values of the most inhibitory vehicle series are shown below in Table 2. Again, a clear break between the first and second tier vehicles is discernible for the V value. Table 2. Vehicles and V value rankings.

Residues, ends and D or L forms follow the SMILES beside them. *: point of attachment. AFC = O=c1cc(C(F)(F)F)c2ccc(N*)cc2o1; MeOSuc = COC(=O)CCC(=O)*; Cbz = O=C(OCc1ccccc1)*; Boc = CC(C)(C)OC(=O)*

As for `CC(C)CC(NC(=O)OCc1ccccc1)C(=O)NC(C=CS(=O)(=O)c1ccccc1)Cc1ccccc1` (stereo not drawn), in the data set with BALB/c mice, the “side effects in treated mice” value is “goiter and neurological problems”.

For the compound Cbz-Leu-Gly-Arg-{AFC} [Z-LGR-AFC], in data set [1], the “inhibition with the 1.4% cocktail” value was “greater than 20%” and the “inhibition with the final cocktail (7.4%)” value (shortened to “inhibition … (7.4%)”) is on record as “less than 20%”. The “cleavage of AFC substrate (Vmax)” value in data set [2] was “noncleavable”.

Consider `COC(=O)CCC(=O)N[C@@H](Cc1ccccc1)C(=O)N[C@@H](CC(C)C)C(=O)N[C@@H](Cc1ccccc1)C(=O)Nc1ccc2c(C(F)(F)F)cc(=O)oc2c1` [MeoSuc-FLF-AFC] (MeOSuc-Phe-Leu-Phe-{AFC}), for which, in data set [2], the “cleavage of AFC substrate (Vmax)” value is listed as “not cleaved”.

Consider `N[C@@H](CCC(=O)O)C(=O)N[C@@H](Cc1ccc(O)cc1)C(=O)Nc1ccc2c(C(F)(F)F)cc(=O)oc2c1` [EY-AFC] (H-Glu-Tyr-{AFC}), for which the “cleavage of AFC substrate (Vmax)” value in data set [2] was “not cleaved”.

As for `CC(C)C[C@H](NC(=O)OCc1ccccc1)C(=O)N[C@@H](CCCNC(=N)N)C(=O)N[C@@H](CCCNC(=N)N)C(=O)Nc1ccc2c(C(F)(F)F)cc(=O)oc2c1` [Z-LRR-AFC] (Cbz-Leu-Arg-Arg-{AFC}), the “inhibition with the 1.4% cocktail” value in data set [1] was “greater than 20%”.

Take `CC(C)[C@H](NC(=O)OC(C)(C)C)C(=O)N1CCC[C@H]1C(=O)N[C@@H](CCCNC(=N)N)C(=O)Nc1ccc2c(C(F)(F)F)cc(=O)oc2c1` [B-VPR-AFC, Boc-Val-Pro-Arg-AFC] (Boc-Val-Pro-Arg-{AFC}): the “inhibition … (7.4%)” value in data set [1] is on record as “less than 20%”. The “V Value” in data set [1] (listed as B-VPR-AC) is reported as 0.120. For the same compound, the Tier in the data set with Taenia solium crude mix is listed as 2 (The second tier was composed of those vehicles that produced inhibition between 20-50% inhibition when in the presence of the 1.4% cocktail). Also, the “cleavage of AFC substrate (Vmax)” value in data set [2] is given as “noncleavable”.

`O=C(N[C@@H](CO)C(=O)N[C@@H](Cc1ccc(O)cc1)C(=O)Nc1ccc2c(C(F)(F)F)cc(=O)oc2c1)OCc1ccccc1` [Z-SY-AFC] (Cbz-Ser-Tyr-{AFC}): in data set [1], the “inhibition … (7.4%)” value is recorded as “less than 20%” and the “V Value” is listed as 0.09. Moreover, in the data set with Taenia solium crude mix, the Tier is 2 (The second tier was composed of those vehicles that produced inhibition between 20-50% inhibition when in the presence of the 1.4% cocktail). In the data set on Taenia solium crude mix (V = P * M), the “V Value” was found to be 0.09.

With `N=C(N)NCCC[C@H](NC(=O)OCc1ccccc1)C(=O)N[C@@H](CCCNC(=N)N)C(=O)Nc1ccc2c(C(F)(F)F)cc(=O)oc2c1` [Z-RR-AFC] (Cbz-Arg-Arg-{AFC}), in data set [1], the “inhibition … (7.4%)” value is reported as “less than 20%” and the “V Value” is 0.09. Moreover, in the data set on Taenia solium crude mix, the Tier is 2 (The second tier was composed of those vehicles that produced inhibition between 20-50% inhibition when in the presence of the 1.4% cocktail).
